Test results from paper PMC7496931, “Activation of Sirtuin 2 Inhibitors Employing Photoswitchable Geometry and Aqueous Solubility” (Chemmedchem, 2020).

Experiment: Reductive stability in the presence of glutathione (HPLC)
Format: physicochemical
Details: GSH 5 mM, 24 h, ambient temperature, HPLC analysis
Experimental: Reductive stability of 15 c, 15 f and 20 a in the presence of the cellular reductant glutathione (5 mM) was confirmed by HPLC analysis (Figure S5, Table S2). For the cell‐based activity assay, we illuminated the compounds solved in DMSO with UV light (365 nm) prior to incubation with the cells. […] As expected, 15 c and 15 f increased the levels of acetylated lysines H3K18 and H3K56, which are both affirmed substrates of Sirt2. In addition, we found H4K8 hyperacetylation even though this site is usually not affected by sirtuin catalysed deacetylation, indicating a further mode of action. […] In Figure 6, we show the relative results, whereby the acetylation product was related to total target protein and to the vehicle control. Again, we found an increase in acetylated histones induced by 15 c and 15 f which proves activity of these two compounds in living cells.
Glutathione (GSH) is able to reduce certain azobenzenes yielding the respective hydrazines.
Therefore, we determined the reductive stability of 15c, 15f and 20a prior to examination of the biological activity in a cell-based assay. […]
Table S2: Relative percentages (%) of GSH and the respective photoisomers extracted from the HPLC analysis. Samples were analyzed right after addition of GSH (0 h) and after 24 h of incubation at ambient temperature. […]
Fluorescence-Based Activity Assay (ZMAL-Assay)
The influence of the synthesized compounds on the deacetylase activity of the class I sirtuins Sirt1–3 was determined in a homogenous fluorescence-based enzyme assay, using the artificial substrate Z-(Ac)Lys-AMC (ZMAL). […]
The latter is subsequently cleaved by tryptic digestion, releasing 7-amino-4-methylcoumarin (AMC), excitation of which leads to a fluorescent read out (λex=390 nm; λem=460 nm). […]
contribute to the fluorescence signal. Therefore, the fluorescence intensity is proportional to the activity of the respective sirtuin.
After subtraction of the blank fluorescence signal (without enzyme) from the signal of the respective probe, the residual signal intensity is related to a 100 % conversion control (AMC),

Reductive stability in the presence of glutathione	Compound
confirmed	CC(C)(C)OC(=O)NCc1ccc(/N=N/c2cncc(C(N)=O)c2)cc1 [15 c]
confirmed	NC(=O)c1cncc(OCc2cccc(/N=N/c3ccc(OCc4ccccc4)cc3)c2)c1 [20 a]
confirmed	CCCCCCCCCC(=O)NCc1ccc(/N=N/c2cncc(C(N)=O)c2)cc1 [15 f]
